Assay results as given in US20200108115A1, “MEDICINAL COMPOSITION DERIVED FROM MULTIPLE PLANT SOURCES FOR GASTROINTESTINAL DISORDER” (priority 2017, published 2020).
Converted amounts (≈) assume the structure as drawn.

Tests used:
Experiment in all cases: MIC by resazurin micro-titre method
Format in all cases: cell-based
Helicobacter pylori (P6) = settings: read-out: MIC value
[1] = tested on: Shigella dysenteriae (P7); settings: read-out: MIC value
[2] = tested on: Faecalibacterium prausnitzii (BB5); settings: beneficial, 37° C., 18-24 h
[3] = tested on: Bacteroides fragilis (BB3); settings: beneficial, 37° C., 18-24 h
Vibrio cholera (P5) = settings: Vibrio cholerae, read-out: MIC value
[4] = tested on: Salmonella typhimurium (P3); settings: Salmonella enterica, 37° C., 18-24 h
Klebsiella oxytoca (P4) = settings: 37° C., 18-24 h
[5] = tested on: Streptococcus thermophilus (BB2); settings: beneficial, 37° C., 18-24 h

O=C(O)c1cn(C2CC2)c2cc(N3CCNCC3)c(F)cc2c1=O [Ciprofloxacin, ciprofloxacin]
MIC (Helicobacter pylori (P6)): 15.1 mg/L (≈ 45.6 µM) | MIC [1]: 15.1 mg/L (≈ 45.6 µM) | MIC [2]: 31.2 mg/L (≈ 94.3 µM) | MIC [3]: 62.5 mg/L (≈ 189 µM) | MIC (Vibrio cholera (P5)): 125 mg/L (≈ 377 µM) | MIC [4]: 1000 mg/L (≈ 3020 µM) | MIC (Klebsiella oxytoca (P4)): 500 mg/L (≈ 1510 µM) | MIC [5]: 31.2 mg/L (≈ 94.3 µM)
